Measured values published in patent US20250197952A1, “TRANSGENIC SOYBEAN EVENT GM_CSM63717 AND COMPOSITIONS AND METHODS FOR DETECTION AND USES THEREOF” (Monsanto Technology LLC, priority 2023, published 2025).

Tested on: soybean event Gm_CSM63717
Experiment: Controlled environment PPO herbicide tolerance trial, event Gm_CSM63717
Type: in vivo, Glycine max
Conditions: 1× rate, sprayed at V3 stage, greenhouse, rated 11 days after herbicide applications
Method: (§1) An efficacy trial was conducted in the controlled environment to evaluate tolerance of event Gm_CSM63717 to various PPO herbicides. The experiment included the lead event (Gm_CSM63717) and a wild-type control in the same transformation germplasm, and consisted of nine individual PPO herbicide treatments, all at 1× rates. These included butafenacil, flumioxazin, fomesafen, lactofen, pyroflufen, saflufenacil, Voraxor (trifludimoxazin and salflufenacil), sulfentrazone, cyclopropylmethyl (2-{2-chloro-4-fluoro-5-[3-methyl-2,6-dioxo-4-(trifluoromethyl)-3,6-dihydropyrimidin-1(2H)-yl]phenoxy}phenoxy)acetate, and an untreated control. The herbicide formulations contained 1% (v/v) Crop Oil Concentrate (COC, Prime Oil, Winfield Solutions, LLC, P. O. Box 64589, St. Paul, MN 55164-0589) for sulfentrazone, fomesafen, lactofen, or 1% (v/v) methylated seed oil (Destiny® HC, Winfield Solutions, LLC, P. O. Box 64589, St. Paul, MN 55164-0589) for flumioxazin, saflufenacil, Voraxor, pyroflufen, butafenacil, and cyclopropylmethyl (2-{2-chloro-4-fluoro-5-[3-methyl-2,6-dioxo-4-(trifluoromethyl)-3,6-dihydropyrimidin-1(2H)-yl]phenoxy}phenoxy)acetate. There were 10 replications per treatment. The plants were grown under standard greenhouse conditions, and were sprayed with each herbicide at V3 stage, and were visually rated for herbicide injury 11 days after herbicide applications.

| Molecule | Injury (%) Gm_CSM63717 |
| --- | --- |
| Cn1c(C(F)(F)F)cc(=O)n(-c2cc(Oc3ccccc3OCC(=O)OCC3CC3)c(Cl)cc2F)c1=O [cyclopropylmethyl (2-{2-chloro-4-fluoro-5-[3-methyl-2,6-dioxo-4-(trifluoromethyl)-3,6-dihydropyrimidin-1(2H)-yl]phenoxy}phenoxy)acetate] | 0% |

Tested on: Cas12a gRNA target sites on Glycine max A3335 chromosome 13
Experiment: gRNA/LbCas12a target site editing in stably transformed soybean plants (AmpSeq)
Type: in vivo
Conditions: plants with target site edits / plants examined x 100
Description: CRISPR Cas12a-based cleavage of DNA sequences requires the use of gRNAs that can target specific sequences (target sites) comprising a Cas12a-recognizable protospacer adjacent motif (PAM) sequence so as to facilitate Cas12a enzymatic activity and DNA cleavage. The 10 cM window was scanned for the presence of the LbCas12a-preferred PAM (TTTV, where “V” is A, C, or G) that were unique in the genome (i.e., that only occur once in the genome). This set was additionally filtered so as to identify gRNA target sites that were more than 2 kb from a coding region, more than 1 kb from a small RNA hotspot, and comprised 700 nucleotides (nt) of unique sequence on either side. A suite of genomic target sites was identified from this analysis and 12 were chosen for testing based on additional factors like GC content, and absence of potential off-targets. PAM sites are italicized and shown in bold. The corresponding 23 bp gRNA spacer (SP) sequences are also identified and represented by SEQ ID NOs:223-234.
Three Agrobacterium T-DNA vectors were designed to evaluate gRNA and LbCas12a nuclease mediated cleavage at the selected target sites. Each T-DNA vector contained 3 cassettes between the left and right borders on the T-DNA: an aadA selection marker cassette, an LbCas12a Cas12a cassette, and a multiplexed gRNA cassette. The aadA and LbCas12a cassettes were common across the three vectors. The aadA expression cassette contained the aadA gene (also known as Tn7 adenylyltransferase (AAD(3″)) from E. coli under the control of a constitutive promoter, and targeted the aadA protein to the chloroplast for selection of transgenic events resistant to spectinomycin and streptomycin. The LbCas12a cassette comprised a plant codon optimized LbCas12a (SEQ ID NO:236) flanked by the same nuclear localization signal sequence (NLS) at the 5′ and 3′ ends (SEQ ID NO:235) and a 3′UTR sequence (SEQ ID NO:237) derived from a Medicago truncatula gene. The gene cassette comprising NLS-Cas12aLbCas12a-NLS sequence was fused 3′ to an ATGGCG sequence and operably linked to a chimeric promoter sequence (SEQ ID NO:238) comprising an enhancer region from the Banana Streak Virus (Strain Acuminata Vietnam) and promoter with the 5′ UTR region from the Dahlia mosaic virus.
The guide RNA cassette in vector pG947 comprised a Glycine max Pol III promoter operably linked to a transcribable sequence comprising in order a DR sequence (SEQ ID NO:239), spacer SP10 (SEQ ID NO:232), DR (SEQ ID NO: 239), spacer SP11 (SEQ ID NO:233), DR (SEQ ID NO: 239), spacer SP2 (SEQ ID NO:224), DR (SEQ ID NO: 239), spacer SP12 (SEQ ID NO:234), DR and a poly (T)7 terminator. The guide RNA cassette in vector pG949 comprised a Glycine max Pol III promoter operably linked to a transcribable sequence comprising in order a DR sequence (SEQ ID NO:239), spacer SP9 (SEQ ID NO:231), DR (SEQ ID NO: 239), spacer SP7 (SEQ ID NO:229), DR (SEQ ID NO: 239), spacer SP1 (SEQ ID NO:223), DR (SEQ ID NO: 239), spacer SP5 (SEQ ID NO:227), DR (SEQ ID NO: 239) and a poly (T)7 terminator. The guide RNA cassette in vector pG950 comprised a Glycine max Pal III promoter operably linked to a transcribable sequence comprising in order a DR sequence (SEQ II) NO:239), spacer SP3 (SEQ ID NO:225), DR (SEQ ID NO: 239), spacer SP6 (SEQ ID NO:228), DR (SEQ ID NO: 239), spacer SP4 (SEQ ID NO:226), DR (SEQ ID NO: 239), spacer P8 (SEQ ID NO:230), DR and a poly (T)7 terminator.
The three plant transformation vectors were introduced into soybean seed-derived embryo explants through Agrobacterium-mediated transformation using methods known in the art. Transformed plants were selected on spectinomycin. Genomic DNA was extracted from leaf samples harvested from regenerated plantlets. Each targeted region was amplified by PCR. […]

| Molecule | Target Editing Rate (%) |
| --- | --- |
| GmTS9: LbCas12a gRNA for target site GmTS9 (SEQ ID NO:219), spacer SP9 (SEQ ID NO:231) (guide CGGAGTAGCAGAGAGGAGATTCG; expressed or natural sequence) | 36.9% |
| GmTS11: LbCas12a gRNA for target site GmTS11 (SEQ ID NO:221), spacer SP11 (SEQ ID NO:233) (guide GCTCGCTATATATATGTGTCACA; expressed or natural sequence) | 48.8% |
| GmTS3: LbCas12a gRNA for target site GmTS3 (SEQ ID NO:213), spacer SP3 (SEQ ID NO:225) (guide GCAAGATCCGCTGCCTGCTTGAG; expressed or natural sequence) | 8.3% |
| GmTS1: LbCas12a gRNA for target site GmTS1 (SEQ ID NO:211), spacer SP1 (SEQ ID NO:223) (guide CAAACATCACATGGCCGGATAAG; expressed or natural sequence) | 2.4% |
| GmTS6: LbCas12a gRNA for target site GmTS6 (SEQ ID NO:216), spacer SP6 (SEQ ID NO:228) (guide CATGCTGTCATCATCTGTTCACT; expressed or natural sequence) | 17.9% |
| GmTS10: LbCas12a gRNA for target site GmTS10 (SEQ ID NO:220), spacer SP10 (SEQ ID NO:232) (guide ATCAAAGCTAAAGCATAAGCATC; expressed or natural sequence) | 45.1% |
| GmTS2: LbCas12a gRNA for target site GmTS2 (SEQ ID NO:212), spacer SP2 (SEQ ID NO:224) (guide CTTCCTGAGGAAATTTGGTTTCA; expressed or natural sequence) | 7.3% |
| GmTS4: LbCas12a gRNA for target site GmTS4 (SEQ ID NO:214), spacer SP4 (SEQ ID NO:226) (guide CCTTGATTTGGATTAACCCGCCA; expressed or natural sequence) | 8.3% |
| GmTS7: LbCas12a gRNA for target site GmTS7 (SEQ ID NO:217), spacer SP7 (SEQ ID NO:229) (guide CCTATATCTGTTTCAGTGATTGC; expressed or natural sequence) | 23.8% |
| GmTS5: LbCas12a gRNA for target site GmTS5 (SEQ ID NO:215), spacer SP5 (SEQ ID NO:227) (guide CTAAATCGCATAGCTTGTGTGTT; expressed or natural sequence) | 14.3% |
| GmTS12: LbCas12a gRNA for target site GmTS12 (SEQ ID NO:222), spacer SP12 (SEQ ID NO:234) (guide GACATATATGCTATATCATTCTC; expressed or natural sequence) | 72% |

Tested on: wild-type control in the same transformation germplasm
Experiment: Controlled environment PPO herbicide tolerance trial, wild-type control
Type: in vivo, Glycine max
Conditions: 1× rate, sprayed at V3 stage, greenhouse, rated 11 days after herbicide applications
Method: as §1

| Molecule | Injury (%) WT Control |
| --- | --- |
| Cn1c(C(F)(F)F)cc(=O)n(-c2cc(Oc3ccccc3OCC(=O)OCC3CC3)c(Cl)cc2F)c1=O [cyclopropylmethyl (2-{2-chloro-4-fluoro-5-[3-methyl-2,6-dioxo-4-(trifluoromethyl)-3,6-dihydropyrimidin-1(2H)-yl]phenoxy}phenoxy)acetate] | 89% |
